Experimental findings from BindingDB's records for doi:10.7270/Q2M61NDW (n/a, 1996) are described below.

In this experiment the target is T1, Papain (Carica papaya, UniProt P00784).
T1 sequence (P00784 whole entry): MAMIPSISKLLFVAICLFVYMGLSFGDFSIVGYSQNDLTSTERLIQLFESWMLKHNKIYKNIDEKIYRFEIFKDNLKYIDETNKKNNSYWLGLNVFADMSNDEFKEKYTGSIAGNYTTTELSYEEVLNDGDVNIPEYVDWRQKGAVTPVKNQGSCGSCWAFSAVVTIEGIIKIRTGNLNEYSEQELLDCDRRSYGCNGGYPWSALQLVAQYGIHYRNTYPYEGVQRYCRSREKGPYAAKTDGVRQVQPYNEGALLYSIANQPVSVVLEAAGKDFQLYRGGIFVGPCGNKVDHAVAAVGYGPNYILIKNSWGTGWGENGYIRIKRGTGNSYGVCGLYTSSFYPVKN
The experiment is described as follows: Pseudo-first order rate constant for inhibition of thiol-dependent papain enzyme.
The koff is the rate constant with which the complex falls apart. Read a low koff as a long-lived complex. Take `CN(N=O)c1cccc(O)c1`: the koff stood at 0.0006 s⁻¹.
For `CN(N=O)c1ccc(Cl)cc1` the value was 0.000283 s⁻¹.
Turning to `CN(N=O)c1ccccc1O`, the koff was found to be 0.000183 s⁻¹.
`CN(N=O)c1ccccc1` registered a koff of 0.00095 s⁻¹.
For `CN(N=O)c1ccccc1[N+](=O)[O-]` the value was 0.000433 s⁻¹.
